# Where two headings read alike, the source gives them in different places.
# Assays:
# Heart = conditions: mouse, in vivo
# [1] = mouse, in vivo
# [2] = mouse, in vivo; remark: listed apart in the source
# [3] = parameters: species or system mice; conditions: mouse, in vivo
# [4] = parameters: species or system mice; conditions: mouse, in vivo; remark: listed apart in the source
# p53 [5] = experiment: C57BL/6 WT vs p53 R172P knock-in mice, protection by arsenic; type: in vivo; conditions: in contrast with wild type littermates
# [6] = tested on: Human lung carcinoma cells A549; type: in vivo, mice; conditions: mouse, in vivo
# [7] = tested on: human adult foreskin keratinocytes; conditions: cited from earlier work
# p53 [8] = type: cell-based
# [9] = tested on: Human breast carcinoma cells, MDA-MB-231; type: in vivo, mice; conditions: mouse, in vivo
# [10] = tested on: Human colon carcinoma cells, SW-480; type: in vivo, mice; conditions: mouse, in vivo
# [11] = tested on: small intestine and bone marrow cells; conditions: mouse, in vivo
# [12] = mouse, in vivo; remark: listed apart in the source
# [13] = mouse, in vivo; remark: listed apart in the source
# p53 [14] = experiment: p53 response to irradiation in peripheral blood lymphocytes after arsenic removal; type: in vivo, Mice
# Procedure: We next used mice to examine arsenic-mediated modulation of p53 activity in vivo. To this end, we used peripheral blood lymphocytes to monitor the p53 response to irradiation. Mice were fed with water containing arsenic for 3 days. Whole blood was collected from the animals 1, 3, 5, 7, 9, or 11 days after arsenic removal. Lymphocytes were isolated by using the Ficoll method. The cells were cultured for 24 h, then irradiated at a dose of 2 Gy and harvested 3 hours post-treatment. Western analysis was performed. Consistent with the results from cell-based studies, p53 activation by radiation recovered, albeit with a slightly slower kinetics, after arsenic was removed. Radiation-induced p53 accumulation and p21 expression were suppressed at 0 and 1 day […], partially recovered at day 7 and completely back to the untreated level at day 9.
# Lung = conditions: mouse, in vivo
# p53 [15] = type: cell-based, human
# [16] = tested on: small intestine and bone marrow cells; conditions: mouse, in vivo; remark: listed apart in the source
# [17] = after arsenic removal, 3 days arsenic water
substance,measurement,setting,value
sodium arsenite,"Grade of Damage, Heart",Heart,Zero
same,Body weight change,[1],little loss of body weight
same,Therapy-induced body weight loss with arsenic pretreatment,[1],effectively prevented
same,5FU-induced body weight loss with arsenic pretreatment,[2],almost completely prevented
same,Duration of pretreatment adequate for optimal protection,[3],3 days
same,Protection with 1 and 2 days pretreatment,[3],less than 3-day pretreatment
same,Protection with pretreatments longer than 3-day,[3],no further increase of benefits
same,p53-dependent tissue damages induced by 5FU treatment,[4],significantly blunted
same,Protection against toxicity in p53 mutant mice,p53 [5],little protection
same,Effect of arsenic pretreatment on 5FU-induced tumor suppression,[6],little effect
same,Effect of arsenic pretreatment on irradiation-induced tumor suppression,[6],little effect
same,Effect on growth of the implant tumors,[6],did not have any detectable effect
same,Concentration resulting in induced proliferation with enhanced NF-κB and AP-1 activity,[7],≤ 5 µM
same,Concentration with statistically significant decrease of cell viability,[7],≥ 10 µM
same,Effect on Hdm2 and p53 distribution,p53 [8],upregulation of Hdm2 and accumulation of p53 in the cytoplasm
same,p53 response to genotoxic stress,p53 [8],impaired p53 activation and apoptosis
same,Effect of arsenic pretreatment on 5FU-induced tumor suppression,[9],little effect
same,Effect of arsenic pretreatment on 5FU-induced tumor suppression,[10],little effect
same,Effect on growth of the implanted tumors,[10],did not have any detectable effect
same,5FU damage to the small intestine with arsenic pretreatment,[11],significantly ameliorated
same,5FU-induced decrease of bone marrow cellularity with arsenic pretreatment,[11],considerably alleviated
same,5FU-induced body weight loss with arsenic pretreatment,[12],almost completely prevented
same,Body weight change,[12],little loss of body weight
same,Dose showing very clear toxicity by itself,[13],> 3500 μg/kg body weight
same,Radiation-induced p53 accumulation and p21 expression,"p53 [14]; 0 and 1 day, lymphocytes irradiated 2 Gy ex vivo",suppressed
same,Day of complete return to untreated level of p53 accumulation and p21 expression,p53 [14]; [17],9 days
same,Day of partial recovery of radiation-induced p53 accumulation and p21 expression,p53 [14]; [17],7 days
same,"Grade of Damage, Lung",Lung,Zero
same,Time after arsenic removal until p53 activation almost completely recovered,p53 [15],7 days
same,Time in arsenic-free media until radiation-induced p53 activation detectable,p53 [15],5 days
same,Damage to small intestine and bone marrow cells with arsenic pretreatment,[16],significantly inhibited
